Laboratory results taken from patent publication US4910196A, “Highly soluble antibacterially active organic salts of pyridobenzothiazines” (Mediolanum Farmaceutici Srl, priority 1986, dated 1990).
Where a name gives a salt, the structure may show the parent alone.

How the values were obtained:
[1] = pH of the aqueous solution; assay type: physicochemical; settings: for pH: in solution in water
[2] = physchem; settings: water, Solubility in H2O

Structure (SMILES) | water solubility | pH [1] | solubility [2] | pH values (in words) ([1]; in solution) | pH ([1]; listed as gluconate)
CN1CCN(c2c(F)cc3c(=O)c(C(=O)O)cn4c3c2SCC4)CC1 [9-fluoro-10[N-(4'-methyl)piperazinyl]-7-oxo-2,3-dihydro-7H-pyrido[1,2,3 de][1,4]benzothiazine-6-carboxylic acid hydrochloride, reference compound] | 8 mg/mL | – | – | – | –
CN1CCN(c2c(F)cc3c(=O)c(C(=O)O)cn4c3c2SCC4)CC1 [Salt with L-tartaric acid] | 6 mg/mL | 4.09-4.10 | – | – | –
CN1CCN(c2c(F)cc3c(=O)c(C(=O)O)cn4c3c2SCC4)CC1 [Salt with citric acid] | 2.7 mg/mL | 3.99-4.00 | – | – | –

Second part, the compound after the results:

water solubility | pH [1] | solubility [2] | pH values (in words) ([1]; in solution) | pH ([1]; listed as gluconate) | Structure (SMILES)
360 mg/mL | 5.07-5.10 | 360 mg/mL | particularly high pH | about 5 | CN1CCN(c2c(F)cc3c(=O)c(C(=O)O)cn4c3c2SCC4)CC1 [Salt with gluconic acid]
3 mg/mL | 4.22 | – | – | – | CN1CCN(c2c(F)cc3c(=O)c(C(=O)O)cn4c3c2SCC4)CC1 [Salt with malonic acid]
87 mg/mL | approximately 3 | – | – | – | CN1CCN(c2c(F)cc3c(=O)c(C(=O)O)cn4c3c2SCC4)CC1 [methanesulphonate, 9-fluoro-10[N-(4'-methyl)piperazinyl]-7-oxo-2,3-dihydro-7H-pyrido[1,2,3 de][1,4]benzothiazine-6-carboxylic acid methanesulphonate]
